Tests used:
Format in all cases: cell-based
HTT CJ mRNA [1] = test: Gene panel canonical junction qPCR assay: HTT; settings: Table 3, concentration having 50% response in CJ decrease, read-out: HTT IC50 (decrease in CJ mRNA levels)
Outline: (§1)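 A673 or K562 cells were treated 24 h at 37 °C with an 11-point 3-fold dilution series (top 10 uM; ≤0.25% DMSO). Canonical-junction mRNA was then measured in lysates by one-step RT-qPCR. Values were normalized to a housekeeping gene (GAPDH, GUSB or PPIA) and to the DMSO control via 2^(−ΔΔCt).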

SMN2 CJ mRNA = test: Gene panel canonical junction qPCR assay: SMN2; settings: Table 3, concentration having 50% response in CJ decrease, read-out: SMN2 IC50 (decrease in CJ mRNA levels)
Outline: as §1

HTT AJ mRNA = test: Splicing assay (RT-qPCR): increase in HTT alternative junction (AJ) mRNA; settings: A673 or K562 cells, 24 hours treatment; concentration having 50% response in AJ mRNA increase
Outline: (§2)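 A673 (DMEM/10% FBS) or K562 (IMDM/10% FBS) cells treated 24 h at 37 °C with 11-point 3-fold dilutions, top final 10 uM, DMSO ≤0.25%. Lysates taken directly to RT-qPCR for HTT CJ and AJ isoforms, normalized to GAPDH, GUSB or PPIA. ΔΔCt vs DMSO control converted to RQ (2^−ΔΔCt), then percentage response.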

HTT CJ mRNA [2] = test: Splicing assay (RT-qPCR): decrease in HTT canonical junction (CJ) mRNA; settings: A673 or K562 cells, 24 hours treatment; concentration having 50% response in CJ mRNA decrease
Outline: as §2

Target C CJ mRNA = test: Gene panel canonical junction qPCR assay: Target C; settings: Table 3, concentration having 50% response in CJ decrease, read-out: Target C IC50 (decrease in CJ mRNA levels)
Outline: as §1

Row | IC50 (HTT CJ mRNA [1]) [nM] | IC50 (SMN2 CJ mRNA) [nM] | IC50 (Target C CJ mRNA) [nM] | Compound | AC50 (HTT AJ mRNA) [nM] | AC50 (HTT CJ mRNA [2]) [nM]
1 | 1000 to 10000 | 100 to 1000 | 1000 to 10000 | Cc1cn2nc(NC(=O)c3sc(C4CCNCC4)cc3F)cc2c(C)n1 [Compound 191, N-[4,6-dimethylpyrazolo[1,5-a]pyrazin-2-yl]-3-fluoro-5-(piperidin-4-yl)thiophene-2-carboxamide] | 1000 to 10000 | 1000 to 10000
2 | > 10 | > 10 | > 10 | Cc1cn2nc(NC(=O)c3sc(C4CCNCC4)cc3F)nc2c(C)n1 [Compound 192, N-[6,8-dimethyl-[1,2,4]triazolo[1,5-a]pyrazin-2-yl]-3-fluoro-5-(piperidin-4-yl)thiophene-2-carboxamide] | > 10000 | > 10000
3 | 100 to 1000 | < 100 | > 10 | Cc1cn2cc(NC(=O)c3sc(C4CCNCC4)cc3F)nc2c(C)n1 [Compound 195, N-[6,8-dimethylimidazo[1,2-a]pyrazin-2-yl]-3-fluoro-5-(piperidin-4-yl)thiophene-2-carboxamide] | 1000 to 10000 | 100 to 1000

Second part, the compound before the results:

Row | Compound | IC50 (HTT CJ mRNA [1]) [nM] | IC50 (SMN2 CJ mRNA) [nM] | IC50 (Target C CJ mRNA) [nM] | AC50 (HTT AJ mRNA) [nM] | AC50 (HTT CJ mRNA [2]) [nM]
4 | Cc1cn2cc(NC(=O)c3cc(F)c(C4CCNCC4)s3)cc(F)c2n1 [Compound 188, 4-fluoro-N-[8-fluoro-2-methylimidazo[1,2-a]pyridin-6-yl]-5-(piperidin-4-yl)thiophene-2-carboxamide] | 100 to 1000 | 100 to 1000 | > 10 | > 10000 | 100 to 1000
5 | COc1cc(N2CCNCC2=O)sc1C(=O)Nc1cc(F)c2nc(C)cn2c1 [Compound 189, N-[8-fluoro-2-methylimidazo[1,2-a]pyridin-6-yl]-3-methoxy-5-(2-oxopiperazin-1-yl)thiophene-2-carboxamide] | > 10 | > 10 | > 10 | > 10000 | > 10000
6 | Cc1cn2cc(NC(=O)c3sc(C4CCNCC4)cc3Cl)cc(F)c2n1 [Compound 190, 3-chloro-N-[8-fluoro-2-methylimidazo[1,2-a]pyridin-6-yl]-5-(piperidin-4-yl) thiophene-2-carboxamide] | < 100 | < 100 | 1000 to 10000 | 100 to 1000 | < 100
7 | Cc1cn2cc(NC(=O)c3cc(Cl)c(C4CCNCC4)s3)cc(F)c2n1 [Compound 193, 4-chloro-N-[8-fluoro-2-methylimidazo[1,2-a]pyridin-6-yl]-5-(piperidin-4-yl) thiophene-2-carboxamide] | > 10 | 1000 to 10000 | > 10 | > 10000 | > 10000
8 | Cc1cn2cc(NC(=O)c3sc([C@@H]4CCN[C@H](C)C4)cc3F)cc(C(F)(F)F)c2n1 [Compound 196, 3-fluoro-N-[2-methyl-8-(trifluoromethyl)imidazo[1,2-a]pyridin-6-yl]-5-[(cis-)-2-methylpiperidin-4-yl]thiophene-2-carboxamide] | 1000 to 10000 | 100 to 1000 | > 10 | > 10000 | 1000 to 10000
9 | Cc1cn2cc(NC(=O)c3sc([C@H]4CCN[C@H](C)C4)cc3F)cc(C(F)(F)F)c2n1 [Compound 197, 3-fluoro-N-[2-methyl-8-(trifluoromethyl)imidazo[1,2-a]pyridin-6-yl]-5-[(trans-)-2-methylpiperidin-4-yl]thiophene-2-carboxamide] | 1000 to 10000 | 100 to 1000 | > 10 | 1000 to 10000 | 1000 to 10000

Reference: patent US20230142338A1, “THIOPHENYL DERIVATIVES USEFUL FOR MODULATING NUCLEIC ACID SPLICING” (REMIX THERAPEUTICS INC., priority 2020, published 2023)
